In ChEMBL document CHEMBL4622894, “An effective method to produce 7-epitaxol from taxol in HCO3” (Bioorg Med Chem Lett, 2020):

Experiments:
Saccharomyces cerevisiae [1] = assay: Antifungal activity against Saccharomyces cerevisiae S288C assessed as fungal growth inhibition; assay type: functional, organism-based
Saccharomyces cerevisiae [2] = assay: Antifungal activity against Saccharomyces cerevisiae AD18 assessed as fungal growth inhibition; assay type: functional, organism-based

Row | SMILES | IC50 (Saccharomyces cerevisiae [1]) [µM] | IC50 (Saccharomyces cerevisiae [2]) [µM]
1 | CC(=O)O[C@H]1C(=O)[C@@]2(C)[C@H]([C@H](OC(=O)c3ccccc3)[C@]3(O)C[C@H](OC(=O)[C@H](O)[C@@H](NC(=O)c4ccccc4)c4ccccc4)C(C)=C1C3(C)C)[C@]1(OC(C)=O)CO[C@@H]1C[C@@H]2O [PACLITAXEL] | > 100 | > 100
2 | CC(=O)O[C@H]1C(=O)[C@]2(C)[C@H](O)C[C@H]3OC[C@@]3(OC(C)=O)[C@H]2[C@H](OC(=O)c2ccccc2)[C@]2(O)C[C@H](OC(=O)[C@H](O)[C@@H](NC(=O)c3ccccc3)c3ccccc3)C(C)=C1C2(C)C | > 100 | 71.5
